Experimental data published in US5162523A, “Cephalosporin antibacterial compounds” (Hoffmann-La Roche Inc., priority 1990, dated 1992).
Counter-ions that a name gives are not always drawn.

Experiment: Stability of the product (observation during preparation)
Assay type: physicochemical
Conditions: observed during preparation and purification

## CCn1cc(C(=O)O)c(=O)c2cc(F)c(N3CCN(C=N[C@@H]4C(=O)N5[C@@H]4SC(C)(C)[C@@H]5C(=O)O)CC3)nc21 [Compound H, [2S-(2α,5α,6β)]-7-[4-[[(2-Carboxy-2,3-dimethyl-7-oxo-4-thia-1-azabicyclo[3.2.0]-hept-6-yl)imino]methyl]-1-piperazinyl]-1-ethyl-6-fluoro-1,4-dihydro-4-oxo-1,8-naphthyridine-carboxylic acid disodium salt]
  stability of the product: very unstable
